# Values of other authors as cited in patent publication US20200316072A1, “COMPOUNDS FOR USE IN REGULATING FOLLICLE MATURATION” (AARHUS UNIVERSITET, priority 2017, published 2020).
# Tested on: IGF/Akt/mTOR signaling pathway
# Settings: stated as prior knowledge on the DPP4 inhibitor; test system not given
smiles,measurement,value
"CC#CCn1c(N2CCC[C@@H](N)C2)nc2c1c(=O)n(Cc1nc(C)c3ccccc3n1)c(=O)n2C [Linagliptin, 8-[(3R)-3-aminopiperidin-1-yl]-7-but-2-ynyl-3-methyl-1-[(4-methylquinazolin-2-yl)methyl]purine-2,6-dione]",phosphorylated protein expression of IGF/Akt/mTOR signaling pathway,alleviated
